Consider 23 compounds from patent US8183005B1, “Pharmaceutical agents for treating HCV infections” (priority 2004, dated 2012).

Common to all, as to type: cell-based
Data set [1] can be described thus: in vitro. To be noted: human, Huh-3-1 replicon cells, three days, Cell Counting Kit-8; read-out: Cytotoxicity CC50. As to the method: (§1) Firefly luciferase HCV replicon cells (Huh-3-1) suspended in Dulbecco's MEM (Gibco Cat. No. 10569) containing 5% fetal bovine serum (Hyclone Cat. No. SH30071.03) were plated onto a 96-well plate at 5000 cells/well, and cultured overnight under 5% CO2 at 37° C. Approximately 20 hours later, fumonisin B1 was added to a final concentration of 1.37 μM to 1000 μM by carrying out a sequential three-fold dilution, and the cells were then cultured for three more days. The assay was carried out by preparing two types of assay plates: one an opaque white plate and the other a transparent plate. After culturing, the white plate was subjected to the Steady-Glo Luciferase Assay System (Promega Cat. No. E2520). More specifically, 100 μL of reagent was added to each well, mixed three to four times using a pipette, and then stood for five minutes before luminescence was measured using 1450 MicroBeta TRILUX (WALLAC). IC50 (50% inhibitory concentration) of a pharmaceutical agent was calculated by subtracting the value obtained without adding the cells as the background value from all of the values, and then defining the level of inhibition without addition of the pharmaceutical agent as 0%. A Cell Counting Kit-8 (DOJINDO Laboratories, Cat. No. 341-07761) was used for the cytotoxicity assays. 10 μL of reagent was added to each well, mixed three to four times using a pipette, and then stood for approximately 30 minutes; measurements were performed when OD450 nm reached approximately 1.0. IC50 (50% inhibitory concentration) of a pharmaceutical agent was calculated by subtracting the value obtained without adding the cells as the background value from all of the values, and then defining the level of inhibition without addition of the pharmaceutical agent as 0%.
(§2) Based on the results of Example 5, the following method was used to measure the effect on cytotoxicity and HCV replicon activity under conditions in which Huh-3-1 cells show reduced LCB1 expression. More specifically, cells were plated onto a 96-well plate at 3500 cells per well, and cultured overnight under 5% CO2 at 37° C. 1.75 μL of 2 μM siRNA was added to 23.3 μL of ECR buffer (buffer included in the RNAiFect Kit), this was stirred vigorously, and then 0.31 μL of RNAiFect transfection reagent was added. This was stirred gently at room temperature and then allowed to stand for ten minutes. siRNA was added to a final concentration of 35 nM, and this was cultured for four days. The effect on cytotoxicity was determined by adding 10 μL of Cell Counting Kit-8 (DOJINDO Laboratories Cat. No. 341-07761) to the medium, mixing three to four times using a pipette, and then allowing this to stand for one hour at 37° C. Absorbance was then measured at 450 nm using a microplate reader Emax (Molecular Devices). After incubation, the medium was exchanged for fresh medium, and the plate was subjected to the Steady-Glo Luciferase Assay System (Promega Cat. No. E2520). 100 μL of reagent was added to each well, mixed three to four times using a pipette, and then allowed to stand for five minutes. Luminescence was then measured using 1450 MicroBeta TRILUX (WALLAC) to determine the HCV replicon activity. IC50 (50% inhibitory concentration) of a pharmaceutical agent was calculated by subtracting the value obtained without adding the cells as the background value from all of the values, and then defining the level of inhibition without addition of the pharmaceutical agent as 0%.
(§3) A Cell Counting Kit-8 (DOJINDO Laboratories, Cat. No. 341-07761) was used for the cytotoxicity assays. More specifically, 10 μL of Cell Counting Kit-8 was added to the transparent plate, and this was warmed at 37° C. for 30 to 60 minutes. Using a 96-well plate reader, absorbance was measured at a wavelength of 450 nm with a reference wavelength of 630 nm. […]
(In general: A replicon is a self-replicating genome or part of one, used to study replication in cells.)

The test system of data set [2] is HCV replicon. As to the kind of experiment: HCV replicon assay (luciferase). The conditions noted are these: for IC50: firefly luciferase HCV replicon cells (Huh-3-1), cultured three days with compound; for HCV replication (replicon activity) versus viable cell count: HCV replicon cells, 72 hours; for HCV replicon activity compared with control siRNA-treated cells: Huh-3-1 cells, siRNA 35 nM, four days. On the procedure: as §1, §2
First, to quantify the copy number of HCV-RNA, an RNA was constructed such that a firefly-derived luciferase gene was introduced into the HCV-RNA as a reporter gene. According to the method of Krieger et al. (J. Virol., 75: 4614), the luciferase gene was introduced immediately after the Internal Ribosome Entry Site (IRES) of the HCV gene, so that the gene was fused with the neomycin-resistance gene. […]

The subject of data set [3] is Huh-3-1 cells. As to the kind of experiment: in vitro. The conditions noted are these: for CC50: Huh-3-1 replicon cells, three days, Cell Counting Kit-8, read-out: Cytotoxicity CC50; for effect of siRNA treatment on cytotoxicity: Huh-3-1 cells, siRNA 35 nM, four days. As to the method: as §1, §2, §3
Data set [4] deals with LCB1 (a subunit of the SPT heterodimer). As to the kind of experiment: Inhibition of LCB1 protein expression by siRNAs, Western blotting. The conditions noted are these: Huh-3-1 cells, siRNA 35 nM, four days. As to the method:
1.2×10^5 Huh-3-1 cells were plated onto a 6-well plate, and the cells were cultured overnight under 5% at 37° C. 2.3 μL of 20 μM siRNA was added to 100 μL of ECR buffer (a buffer included in the RNAiFect Kit), this was stirred vigorously, and after the addition of 4 μL of RNAiFect transfection reagent (Qiagen Cat. No. 301605) this was stirred gently at room temperature and allowed to stand for ten minutes. siRNA was added to a final concentration of 35 nM, and this was cultured for four days.
The cells were suspended in a cell lysis buffer (50 mM Tris-HCl (pH 7.5), 0.5% Triton, 3 mM EDTA, 150 mM NaCl, 12 mM glycerophosphate, 50 mM NaF, 1 mM Na3VO4, 0.5 mM PMSF, 0.5 mM aporotinin), and were allowed to stand on ice for ten minutes. This was centrifuged at 15,000×g for ten minutes, and the supernatant was collected. After quantifying the protein, the amount of protein in each sample was adjusted to 10 μg, and this was added to ¼ volume of 5×SDS sample buffer (125 mM Tris-HCl (pH 6.5), 25% Glycerol, 5% SDS, 0.25% BPB, 5% 2-Mercaptoethanol) and treated for five minutes at 98° C. […] The membranes were washed with 0.1% Tween 20/PBS, and then reacted for one minute with ECL, and the resulting signals were detected by autoradiography.

What is called CC50 is the concentration giving 50% cytotoxicity. Broadly, the IC50 is the concentration needed to halve the response being measured. Take `CCCCCCCC(=O)CCCCCC/C=C/[C@H](C(=O)N[C@@H](Cc1ccc(C(F)(F)F)cc1)C(=O)O)[C@@](O)(CC(=O)O)C(=O)O` [(18)]: the CC50 in data set [1] is more than 1000 nM. In addition, the IC50 in data set [2] (Hepatitis C virus, 72 h) was 68 nM. In the same order, the values of `CCCCCCCC(=O)CCCCCC/C=C/[C@H](C(=O)N[C@@H](Cc1ccc(C#N)cc1)C(=O)O)[C@@](O)(CC(=O)O)C(=O)O` [(19)] are more than 1000 nM and 12 nM. In the same order, the values of `CCCCCCCC(=O)CCCCCC/C=C/[C@H](C(=O)N[C@@H](Cc1ccc(Cl)cc1)C(=O)O)[C@@](O)(CC(=O)O)C(=O)O` [(20)] are more than 1000 nM and 55 nM.

As for `CCCCCCCC(=O)CCCCCC/C=C/[C@H](C(=O)N[C@@H](Cc1ccc([N+](=O)[O-])cc1)C(=O)O)[C@@](O)(CC(=O)O)C(=O)O` [(21)], the CC50 in data set [1] was more than 1000 nM. For the same compound, the IC50 in data set [2] (Hepatitis C virus, 72 h) was found to be 80 nM. For the compound `CCCCCCCC(=O)CCCCCC/C=C/[C@H](C(=O)N[C@@H](Cc1ccc(OCCCC)cc1)C(=O)O)[C@@](O)(CC(=O)O)C(=O)O` [(26)], in data set [1], the CC50 was more than 1000 nM.

For `CC(C)CCOc1ccc(C[C@H](NC(=O)[C@@H](/C=C/CCCCCCC(=O)CCCCC2CCCCC2)[C@](O)(CC(=O)O)C(=O)O)C(=O)O)cc1` [(38)], in data set [3], the CC50 was more than 1000 nM. The IC50 in data set [2] came to 24 nM. As for `CCCCCCCC(=O)CCCCCC/C=C/[C@H](C(=O)N[C@@H](Cc1ccc(OCC=C(C)C)cc1)C(=O)O)[C@@](O)(CC(=O)OC)C(=O)O` [(41)], the CC50 in data set [1] was more than 1000 nM. Same read-out and setting: next, `CCCCCCCC(=O)CCCCCC/C=C/[C@H](C(=O)N[C@@H](Cc1ccc(OCC=C(C)C)cc1)C(=O)OC)[C@@](O)(CC(=O)OC)C(=O)O` [(42)]: more than 1000 nM; `CCCCCCC(O)C(=O)CCCCCC/C=C/[C@H](C(=O)N[C@@H](Cc1ccc(O)cc1)C(=O)O)[C@@](O)(CC(=O)O)C(=O)O` (stereo partly shown) [(43)]: more than 1000 nM; `CCCCCCCC(=O)CCCCCC/C=C/[C@H](C(=O)N[C@@H](Cc1c[nH]c2ccccc12)C(=O)O)[C@@](O)(CC(=O)O)C(=O)O` [(44)]: more than 1000 nM.

On to `CCCCCCC(O)C(=O)CCCCCC/C=C/[C@H](C(=O)N[C@@H](Cc1ccc(OCC=C(C)C)cc1)C(=O)O)[C@@](O)(CC(=O)O)C(=O)O` (stereo partly shown) [(45)], for which, in data set [1], the CC50 is more than 1000 nM.

As for `CCCCCCCC(CCCCCC/C=C/[C@H](C(=O)N[C@@H](Cc1ccc(OCC=C(C)C)cc1)C(=O)O)[C@@](O)(CC(=O)O)C(=O)O)=NOC` [(54)], the CC50 in data set [1] is more than 50000 nM. The same measure, in the same setting: next, `CCCCCCCC(=O)CCCCCC/C=C/[C@H](C(=O)N[C@@H](Cc1ccc(OCCC(C)C)cc1)C(=O)O)[C@@](O)(CC(=O)O)C(=O)O` [Compound (46)]: more than 5000 nM; `CCCCCCCC(O)CCCCCC/C=C/[C@H](C(=O)N[C@@H](Cc1ccc(OCC=C(C)C)cc1)C(=O)O)[C@@](O)(CC(=O)O)C(=O)O` (stereo partly shown) [Compound (47)]: more than 5000 nM; `CCCCCCCC(=O)CCCCCC/C=C/[C@H](C(=O)N[C@@H](Cc1ccc(O)cc1)C(=O)O)[C@@](O)(CC(=O)O)C(=O)O` [Compound (48)]: more than 5000 nM. Same read-out and setting: next, `CCCCCCCC(=O)CCCCCCCC[C@H](C(=O)N[C@@H](Cc1ccc(O)cc1)C(=O)O)[C@@](O)(CC(=O)O)C(=O)O` [Compound (49)]: more than 50000 nM; `CCCCCCCC(=O)CCCCCC/C=C/[C@H](C(=O)N[C@@H](Cc1ccc(OCC=C(C)C)cc1)C(N)=O)[C@@](O)(CC(N)=O)C(N)=O` [Compound (50)]: more than 5000 nM. Take `CCCCCCCC(=O)CCCCCC/C=C/[C@H](C(=O)N[C@@H](Cc1ccc(OCC=C(C)C)cc1)C(=O)O)[C@@](O)(CC(=O)O)C(=O)O` [Compound (51)]: the CC50 in data set [3] was more than 5000 nM. In addition, the IC50 in data set [2] was 72 nM. Take `CCCCCCCCCCCCCC/C=C/[C@H](C(=O)N[C@@H](Cc1ccc(OCC=C(C)C)cc1)C(=O)O)[C@@](O)(CC(=O)O)C(=O)O` [Compound (52)]: the CC50 in data set [1] is more than 50000 nM. Moreover, the IC50 in data set [2] (Hepatitis C virus, 72 h) was found to be 100 nM. As to `CCCCCCCCCCCC(=O)N[C@@H](CO)C[C@H](O)c1ccccc1` [HPA-12, reference compound], the “HCV replication (replicon activity) versus viable cell count” value in data set [2] is “suppressing the HCV replication at non-cytotoxic concentrations”. As to `CCCC[C@@H](C)[C@@H](OC(=O)C[C@@H](CC(=O)O)C(=O)O)[C@H](C[C@@H](C)C[C@H](O)CCCC[C@@H](O)C[C@H](O)[C@H](C)N)OC(=O)C[C@@H](CC(=O)O)C(=O)O` [fumonisin B1, reference compound], the “HCV replication (replicon activity) versus viable cell count” value in data set [2] is “suppressing the HCV replication at non-cytotoxic concentrations”. Turning to “si246: siRNA targeting LCB1, a subunit of the SPT heterodimer; SEQ ID NO: 1 (CAUCGUUUCAGGCCCUCCATT; chemistry not given here)”, the “effect of siRNA treatment on cytotoxicity” value in data set [3] is “almost no effect”. Moreover, in data set [4], the “LCB1 protein expression compared with control siRNA” value is “Particularly strong inhibition of expression”. For the same compound, the “HCV replicon activity compared with control siRNA-treated cells” value in data set [2] was “strong inhibitory effect”. In the same order, the values of “si633: siRNA targeting LCB1, a subunit of the SPT heterodimer; SEQ ID NO: 2 (UGACAUGGCUGACCUCGAGTT; chemistry not given here)” are “almost no effect”, “decrease the level of LCB1 protein expression” and “significantly inhibited”.
